Data from paper PMC7501730, “Discovery of novel small molecule inhibitors of S100P with in vitro anti-metastatic effects on pancreatic cancer cells” (European Journal of Medicinal Chemistry, 2020).
Read-outs that look alike come from different tables or passages of the source.

Columns and labels:
[1] = molecular target: T1, S100P-RAGE interaction (Homo sapiens, UniProt P25815); assay: ELISA of S100P-RAGE binding inhibition; details: for ELISA inhibition: concentration with significant inhibition of S100P-RAGE binding, asterisks = significance by one-way ANOVA
T1 construct: His tag (N); made in house; host or cells: Escherichia coli BL21*
T1 sequence (P25815 1-95): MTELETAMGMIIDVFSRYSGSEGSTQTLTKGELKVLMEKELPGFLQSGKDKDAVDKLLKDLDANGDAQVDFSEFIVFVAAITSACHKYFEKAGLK
Procedure: The purchased computational screening hits were subjected to initial biological testing for inhibition of S100P-RAGE binding (ELISA), with cromolyn as positive control, using an adaptation of the reported ELISA for S100 family members.
Fig. 2 Effects of compounds 1–14 on S100P binding to RAGE. Human S100P (2 μM) coated wells were incubated with increasing concentrations of the compound tested, in triplicate, and exposed to human RAGE-Fc (100 nM) followed by goat anti-human secondary antibody to detect RAGE bound S100P. Data are compared to S100P/RAGE binding with no inhibitor (DMSO, 100%) and are presented as mean ± SEM; data is significant by one way ANOVA, where ∗ = p < 0.05, ∗∗ = p < 0.01 and ∗∗∗ = p < 0.001; n = 9 from 3 plates.
To generate human S100P recombinant protein, a pQE-30 ([…]) plasmid encoding S100P with N-terminal histidine tags (gifted by Dr Igor Barsukov, Liverpool University, UK), was transformed into BL21∗ competent Escherichia coli cells. Recombinant protein was purified using a HisTrap Nickel-nitrilotriacetic acid (Ni-NTA) agarose column (GE Healthcare, UK).
Purified recombinant S100P (2μM/well) in phosphate buffer (PBS; 137 mM NaCl, 2.7 mM KCl, 10 mM Na2HPO4, 1.8 mM KH2PO4, pH 7.4; supplemented with 1 mM CaCl2, 10 μM ZnCl2, and 0.5 mM MgCl2) was used for coating a 96 well plate (NunclonDelta, Fisher), and incubated overnight at 37 °C.
Following washing, S100P non-specific binding sites were blocked with 1% bovine serum albumin (BSA; Fisher, UK) in PBS for 2 h at 37 °C. Following three washes, S100P was incubated with increasing concentrations of compounds, in parallel to cromolyn and DMSO treated wells, all in triplicate. Then 30 nM recombinant human receptor for advanced glycation end products (rh/RAGE-Fc; R&D Systems) was added and incubated for 1 h at 37 °C. Controls included a negative control (S100P protein, no RAGE-Fc), a positive control (S100P protein plus RAGE), and vehicle control (0.001% DMSO in PBS) were included in each plate. After three washes in PBS, all wells were exposed to goat anti-human HRP conjugate (1:1000; Millipore) for 1 h at 37 °C in order to detect bound receptors. Subsequent to washes, wells were incubated for 20 min in the dark with 3,3′,5,5′-tetramethylbenzidene (TMB) substrate (Sigma, UK). Plates were read at 450 nm using a Multiskan Ascent spectrophotometer (Fisher Scientific, UK). All sample readings were normalized to the positive control (S100P plus RAGE-Fc). Statistical analysis was performed and graphs plotted using the GraphPad Prism software in the following way: One Way ANOVA was used to compare the effects of concentration of each compound to the effects of vehicle control (DMSO), and p values of <0.05 were considered statistically significant. A post hoc analysis was conducted using Dunnetts multiple comparisons test; results are indicated by ∗ = p < 0.05; ∗∗ = p < 0.01 and ∗∗∗ = p < 0.001.

[2] = Table 1, ELISA, human S100P 2 μM coated wells, human RAGE-Fc, read-out: Estimated IC50
[3] = Table 2, ELISA, analog series of hit 4, read-out: Estimated IC50

Row | SMILES | ELISA inhibition ([1]; Table 2) | other results
1 | COc1ccc(/C=C2/C(=O)NC(=O)N(c3ccc(Cl)c(Cl)c3)C2=O)cc1C(=O)O [Compound 3] | – | IC50 [1]: 0.514 nM
2 | Cc1nc2sc3c(c2c2nc(C(=O)NCCOCCO)nn12)C[C@@H](C)CC3 [Compound 13] | – | IC50 [1, 2]: 126 nM
3 | O=C1C2C3c4ccccc4C([N+](=O)[O-])(c4ccccc43)C2C(=O)N1c1ccc([N+](=O)[O-])cc1 (stereo not shown) [Compound 4j, 9-Nitro-13-(4-nitrophenyl)-9,10-dihydro-9,10-[3,4]epipyrroloanthracene-12,14-dione] | – (no significant inhibition below 1 μM) | –
4 | O=C1C2C3c4ccccc4C([N+](=O)[O-])(c4ccccc43)C2C(=O)N1c1cccc([N+](=O)[O-])c1 (stereo not shown) [Compound 4d, 9-Nitro-13-(3-nitrophenyl)-9,10-dihydro-9,10-[3,4]epipyrroloanthracene-12,14-dione] | – (no significant inhibition below 1 μM) | –
5 | CC(C)(C)c1ccc(N2C(=O)C3C4c5ccccc5C([N+](=O)[O-])(c5ccccc54)C3C2=O)cc1 (stereo not shown) [Compound 4l, 13-(4-(tert-butyl)phenyl)-9-nitro-9,10-dihydro-9,10-[3,4]epipyrroloanthracene-12,14-dione] | - (no significant inhibition below 1 μM) | –
6 | O=C(O)c1ccc(N2C(=O)C3C4c5ccccc5C([N+](=O)[O-])(c5ccccc54)C3C2=O)cc1 (stereo not shown) [Compound 4f, 4-(9-Nitro-12,14-dioxo-9,10-dihydro-9,10-[3,4]epipyrroloanthracen-13-yl)benzoic acid] | <10 nM∗∗∗ | concentration with significant inhibition of S100P-RAGE binding ([1]; ELISA): ≤ 100 nM; IC50 [1, 3]: 0.482 nM; melting point: 344 to 345 °C
7 | O=C1C2C3c4ccccc4C([N+](=O)[O-])(c4ccccc43)C2C(=O)N1c1ccccc1 (stereo not shown) [Compound 4e, 9-Nitro-13-phenyl-9,10-dihydro-9,10-[3,4]epipyrroloanthracene-12,14-dione] | – (no significant inhibition below 1 μM) | –
8 | O=C1C2C3c4ccccc4C(c4ccccc43)C2C(=O)N1c1ccc(Cl)cc1 (stereo not shown) [Compound 4v, 13-(4-chlorophenyl)-9,10-dihydro-9,10-[3,4]epipyrroloanthracene-12,14-dione] | – (no significant inhibition below 1 μM) | –
9 | O=C(O)CNC(=O)CCCn1c(=O)[nH]c2ccccc2c1=O [Compound 10] | – | IC50 [1, 2]: 42.6 nM
10 | O=C1C2C3c4ccccc4C(c4ccccc43)C2C(=O)N1c1ccc(F)cc1 (stereo not shown) [Compound 4u, 13-(4-fluorophenyl)-9,10-dihydro-9,10-[3,4]epipyrroloanthracene-12,14-dione] | 10 nM∗ | concentration with significant inhibition of S100P-RAGE binding ([1]; ELISA): ≤ 100 nM; IC50 [1, 3]: 4.15 nM; melting point: 250 to 253 °C
11 | CC(C)(C)c1ccc(N2C(=O)C3C4c5ccccc5C(c5ccccc54)C3C2=O)cc1 (stereo not shown) [Compound 4y, 13-(4-(tert-butyl)phenyl)-9,10-dihydro-9,10-[3,4]epipyrroloanthracene-12,14-dione] | - (no significant inhibition below 1 μM) | –
12 | O=C1C2C3c4ccccc4C(c4ccccc43)C2C(=O)N1c1ccc(I)cc1 (stereo not shown) [Compound 4x, 13-(4-iodophenyl)-9,10-dihydro-9,10-[3,4]epipyrroloanthracene-12,14-dione] | – (no significant inhibition below 1 μM) | –
13 | COc1ccc(-c2noc(CCCC(=O)O)n2)cc1 [Compound 12] | – | IC50 [1, 2]: 264 nM
14 | O=C1C2C3c4ccccc4C(c4ccccc43)C2C(=O)N1c1ccccc1 (stereo not shown) [Compound 4r, 13-Phenyl-9,10-dihydro-9,10-[3,4]epipyrroloanthracene-12,14-dione] | 10 nM∗ | concentration with significant inhibition of S100P-RAGE binding ([1]; ELISA): ≤ 100 nM; IC50 [1, 3]: 0.796 nM; melting point: 211 to 215 °C
15 | O=C1C2C3c4ccccc4C(c4ccccc43)C2C(=O)N1c1ccc([N+](=O)[O-])cc1 (stereo not shown) [Compound 4w, 13-(4-nitrophenyl)-9,10-dihydro-9,10-[3,4]epipyrroloanthracene-12,14-dione] | – (no significant inhibition below 1 μM) | –
16 | Nc1nnn(CC(=O)N/N=C/c2cccs2)n1 [Compound 9] | – | IC50 [1, 2]: 7.7 nM

Row | SMILES | ELISA inhibition ([1]; Table 2) | other results
17 | O=C1C2C3c4ccccc4C([N+](=O)[O-])(c4ccccc43)C2C(=O)N1c1ccc(Cl)cc1 (stereo not shown) [Compound 4i, 13-(4-chlorophenyl)-9-nitro-9,10-dihydro-9,10-[3,4]epipyrroloanthracene-12,14-dione] | – (no significant inhibition below 1 μM) | –
18 | N#CCCn1cc(C(=O)Nc2ccc(C(=O)O)cc2)c(-c2ccccc2)n1 [Compound 5] | – | IC50 [1, 2]: 0.6 nM
19 | O=C(Cc1cc(O)n[nH]1)N/N=C/c1c(Cl)cccc1Cl [Compound 7] | – | IC50 [1, 2]: 19 nM
20 | O=C(O)c1ccc(N2C(=O)C3C4c5ccccc5C(c5ccccc54)C3C2=O)cc1 (stereo not shown) [Compound 4s, 4-(12,14-Dioxo-9,10-dihydro-9,10-[3,4]epipyrroloanthracen-13-yl)benzoic acid] | – (no significant inhibition below 1 μM) | –
21 | CCOC(=O)c1cccc(N2C(=O)C3C4c5ccccc5C(c5ccccc54)C3C2=O)c1 (stereo not shown) [Compound 4n, Ethyl 3-(12,14-dioxo-9,10-dihydro-9,10-[3,4]epipyrroloanthracen-13-yl)benzoate] | – (no significant inhibition below 1 μM) | –
22 | O=C1C2C3c4ccccc4C(c4ccccc43)C2C(=O)N1c1cccc([N+](=O)[O-])c1 (stereo not shown) [Compound 4q, 13-(3-nitrophenyl)-9,10-dihydro-9,10-[3,4]epipyrroloanthracene-12,14-dione] | – (no significant inhibition below 1 μM) | –
23 | CCCN1CCc2c(sc3c2c(NCCc2ccccc2)nc2nnnn23)C1 [Compound 14] | – | IC50 [1, 2]: 77 nM
24 | O=C1C2C3c4ccccc4C([N+](=O)[O-])(c4ccccc43)C2C(=O)N1c1ccc(F)cc1 (stereo not shown) [Compound 4h, 13-(4-fluorophenyl)-9-nitro-9,10-dihydro-9,10-[3,4]epipyrroloanthracene-12,14-dione] | – (no significant inhibition below 1 μM) | –
25 | O=C1C2C3c4ccccc4C([N+](=O)[O-])(c4ccccc43)C2C(=O)N1c1ccc(I)cc1 (stereo not shown) [Compound 4k, 13-(4-iodophenyl)-9-nitro-9,10-dihydro-9,10-[3,4]epipyrroloanthracene-12,14-dione] | – (no significant inhibition below 1 μM) | –
26 | O=C(O)CCNC(=O)Cn1nnc2ccccc2c1=O [Compound 11] | – | IC50 [1, 2]: 6.89 nM
27 | O=C1C2C3c4ccccc4C(c4ccccc43)C2C(=O)N1c1cccc(Cl)c1 (stereo not shown) [Compound 4p, 13-(3-chlorophenyl)-9,10-dihydro-9,10-[3,4]epipyrroloanthracene-12,14-dione] | – (no significant inhibition below 1 μM) | –
28 | CCOC(=O)c1ccc(N2C(=O)C3C4c5ccccc5C(c5ccccc54)C3C2=O)cc1 (stereo not shown) [Compound 4t, Ethyl 4-(12,14-dioxo-9,10-dihydro-9,10-[3,4]epipyrroloanthracen-13-yl)benzoate] | – (no significant inhibition below 1 μM) | –
29 | O=C1C2C3c4ccccc4C([N+](=O)[O-])(c4ccccc43)C2C(=O)N1c1cccc(Cl)c1 (stereo not shown) [Compound 4c, 13-(3-chlorophenyl)-9-nitro-9,10-dihydro-9,10-[3,4]epipyrroloanthracene-12,14-dione] | – (no significant inhibition below 1 μM) | –
30 | Cc1ccc(-c2ccc(=O)n(CC(=O)Nc3ccc(-n4cnnn4)cc3)n2)cc1 [Compound 6] | – | IC50 [1, 2]: 0.555 nM
31 | O=C(O)c1cccc(N2C(=O)C3C4c5ccccc5C(c5ccccc54)C3C2=O)c1 (stereo not shown) [Compound 4m, 3-(12,14-Dioxo-9,10-dihydro-9,10-[3,4]epipyrroloanthracen-13-yl)benzoic acid] | – (no significant inhibition below 1 μM) | –
